Test results: ChEMBL document CHEMBL4842344, “Design, synthesis and biological activity evaluation of novel scopoletin-NO donor derivatives against MCF-7 human breast cancer in vitro and in vivo” (Eur J Med Chem, 2021)
Active and inactive are the calls of the source. The calls are words filed in the database; no cut-off is given here.

Legend:
[1] = tested on: MCF7; test: Antiproliferative activity against human MCF7 cells assessed as inhibition of cell growth measured after 48 hrs by MTT assay; format: functional, cell-based; conditions: MCF7, 48 h
[2] = tested on: MDA-MB-231; test: Antiproliferative activity against human MDA-MB-231 cells assessed as inhibition of cell growth measured after 48 hrs by MTT assay; format: functional, cell-based; conditions: MDA-MB-231, 48 h
[3] = tested on: MCF-10A; test: Cytotoxicity against human MCF-10A cells assessed as reduction in cell viability measured after 48 hrs by MTT assay; format: cell-based
[4] = tested on: MCF7; test: Inhibition of cell proliferation in human MCF7 cells assessed as increase in intracellular NO production at 25 uM measured after 2.5 hrs by nitric oxide assay; format: functional, cell-based

IC50 [1] | IC50 [2] | SMILES | IC50 [3] | Activity [4]
750 nM | 1540 nM | COc1ccc(CCNC(=O)c2cc3cc(OC)c(OCCCOc4no[n+]([O-])c4S(=O)(=O)c4ccccc4)cc3oc2=O)cc1 | 5370 nM | Active
440 nM | 1110 nM | COc1cc2cc(C(=O)NCCc3ccc(F)cc3)c(=O)oc2cc1OCCCOc1no[n+]([O-])c1S(=O)(=O)c1ccccc1 | 7950 nM | Active
860 nM | 1200 nM | COc1cc2cc(C(=O)Nc3ccc(F)cc3)c(=O)oc2cc1OCCCOc1no[n+]([O-])c1S(=O)(=O)c1ccccc1 | 7210 nM | Active
